Measured values: patent US8557853B2, “Aryl fluoroethyl ureas acting as alpha 2 adrenergic agents” (Allergan, Inc., priority 2007, dated 2013)

How the values were obtained:
Assay type in all cases: cell-based
alpha2A receptor = target: T1, alpha2A receptor (Homo sapiens, UniProt P08913); test: RSAT (Receptor Selection and Amplification Technology) assay, alpha 2A; conditions: for EC50 / Alpha 2A EC50: RSAT, transfected NIH-3T3 cells, "not active" = not active at concentrations less than 10 micromolar; for Alpha 2A IA: intrinsic activity: ratio of maximal effect of drug to maximal effect of standard full agonist brimonidine (UK14304)
T1 construct: expressed in transfected cells; host or cells: NIH-3T3 cells
T1 sequence (P08913 1-465): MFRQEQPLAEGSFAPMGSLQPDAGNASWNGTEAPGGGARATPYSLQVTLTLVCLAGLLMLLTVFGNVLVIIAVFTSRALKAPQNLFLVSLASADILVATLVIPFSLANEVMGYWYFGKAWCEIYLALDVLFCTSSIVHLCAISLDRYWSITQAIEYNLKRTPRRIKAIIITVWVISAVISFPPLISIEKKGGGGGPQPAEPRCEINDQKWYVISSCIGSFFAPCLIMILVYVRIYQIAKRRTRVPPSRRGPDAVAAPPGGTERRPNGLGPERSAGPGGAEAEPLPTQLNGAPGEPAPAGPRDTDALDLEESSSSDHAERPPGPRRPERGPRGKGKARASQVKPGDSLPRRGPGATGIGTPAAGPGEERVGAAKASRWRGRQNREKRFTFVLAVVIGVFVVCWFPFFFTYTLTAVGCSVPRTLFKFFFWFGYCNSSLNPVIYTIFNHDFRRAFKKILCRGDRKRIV
Description: (§1) The aryl fluoroethyl ureas of the invention are agonists of alpha2 adrenergic receptors. […] Al, 1995, Pharmacol. Toxicol. 76, pp. 308-311 (incorporated herein by reference) and is also described below. Another reference pertinent to this assay is Conklin et al. (1993) Nature 363:274-6, Receptor Selection and Amplification Technology (RSAT) assay, also incorporated herein by reference.
(§2) The RSAT assay measures a receptor-mediated loss of contact inhibition that results in selective proliferation of receptor-containing cells in a mixed population of confluent cells. The increase in cell number is assessed with an appropriate transfected marker gene such as ∃-galactosidase, the activity of which can be easily measured in a 96-well format. Receptors that activate the G protein, Gq, elicit this response. Alpha 2 receptors, which normally couple to Gi, activate the RSAT response when coexpressed with a hybrid Gq protein that has a Gi receptor recognition domain, called Gq/i5.
(§3) NIH-3T3 cells are plated at a density of 2×10^6 cells in 15 cm dishes and maintained in Dulbecco's modified Eagle's medium supplemented with 10% calf serum. One day later, cells are cotransfected by calcium phosphate precipitation with mammalian expression plasmids encoding p-SV-β-galactosidase (5-10 μg), receptor (1-2 μg) and G protein (1-2 μg). 40 μg salmon sperm DNA may also be included in the transfection mixture. Fresh media is added on the following day and 1-2 days later, cells are harvested and frozen in 50 assay aliquots. Cells are thawed and 100 μl added to 100 μl aliquots of various concentrations of drugs in triplicate in 96-well dishes. Incubations continue 72-96 hr at 37° C. After washing with phosphate-buffered saline, ∃-galactosidase enzyme activity is determined by adding 200 μl of the chromogenic substrate (consisting of 3.5 mM o-nitrophenyl-β-D-galactopyranoside and 0.5% nonidet P-40 in phosphate buffered saline), incubating overnight at 30° C. and measuring optical density at 420 nm. The absorbance is a measure of enzyme activity, which depends on cell number and reflects a receptor-mediated cell proliferation. The efficacy or intrinsic activity is calculated as a ratio of the maximal effect of the drug to the maximal effect of a standard full agonist for each receptor subtype. Brimonidine, also called UK14304, the chemical structure of which is shown below, is used as the standard agonist for the alpha2A, alpha2B and alpha2C receptors.
(§4) The results of the RSAT assay with several exemplary compounds of the invention are disclosed in Table 1 below together with the chemical structures of these compounds. “Not active” means the compounds are not active at concentrations less than 10 micromolar.

alpha2B receptor = target: T2, alpha2B receptor (Homo sapiens, UniProt P18089); test: RSAT (Receptor Selection and Amplification Technology) assay, alpha 2B; conditions: for EC50: RSAT, transfected NIH-3T3 cells, "not active" = not active at concentrations less than 10 micromolar, read-out: Alpha 2B EC50; for Alpha 2B IA: intrinsic activity: ratio of maximal effect of drug to maximal effect of standard full agonist brimonidine (UK14304)
T2 construct: expressed in transfected cells; host or cells: NIH-3T3 cells
T2 sequence (P18089 1-450): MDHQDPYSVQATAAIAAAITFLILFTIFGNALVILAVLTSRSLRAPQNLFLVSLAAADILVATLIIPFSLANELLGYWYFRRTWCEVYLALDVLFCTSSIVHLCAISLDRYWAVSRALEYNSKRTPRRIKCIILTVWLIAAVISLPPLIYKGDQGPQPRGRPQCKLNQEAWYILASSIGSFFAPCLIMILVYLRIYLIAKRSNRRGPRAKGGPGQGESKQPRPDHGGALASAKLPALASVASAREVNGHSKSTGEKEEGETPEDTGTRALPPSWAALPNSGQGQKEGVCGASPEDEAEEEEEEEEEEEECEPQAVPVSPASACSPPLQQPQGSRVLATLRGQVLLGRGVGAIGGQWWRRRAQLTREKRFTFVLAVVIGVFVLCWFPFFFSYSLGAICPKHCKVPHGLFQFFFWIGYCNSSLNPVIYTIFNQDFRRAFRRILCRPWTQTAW
Method: as §2, §3

alpha2C receptor = target: T3, alpha2C receptor (Homo sapiens, UniProt P18825); test: RSAT (Receptor Selection and Amplification Technology) assay, alpha 2C; conditions: for EC50 / Alpha 2C EC50: RSAT, transfected NIH-3T3 cells, "not active" = not active at concentrations less than 10 micromolar; for Alpha 2C IA: intrinsic activity: ratio of maximal effect of drug to maximal effect of standard full agonist brimonidine (UK14304)
T3 construct: expressed in transfected cells; host or cells: NIH-3T3 cells
T3 sequence (P18825 1-462): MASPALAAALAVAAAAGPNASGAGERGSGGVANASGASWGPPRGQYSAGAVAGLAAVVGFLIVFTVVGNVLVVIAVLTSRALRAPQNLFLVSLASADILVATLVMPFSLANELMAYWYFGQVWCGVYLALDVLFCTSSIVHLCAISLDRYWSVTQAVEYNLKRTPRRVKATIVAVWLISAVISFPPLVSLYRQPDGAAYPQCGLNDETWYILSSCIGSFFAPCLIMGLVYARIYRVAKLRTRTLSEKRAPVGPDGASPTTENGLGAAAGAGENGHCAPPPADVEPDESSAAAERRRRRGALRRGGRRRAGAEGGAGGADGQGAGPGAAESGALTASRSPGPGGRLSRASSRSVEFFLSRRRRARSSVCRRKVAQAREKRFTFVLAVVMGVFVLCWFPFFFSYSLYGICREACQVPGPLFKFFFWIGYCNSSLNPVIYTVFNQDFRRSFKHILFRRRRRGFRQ
Description: as §1, §2, §3, §4

Compound	EC50 (alpha2A receptor)	Alpha 2A IA (alpha2A receptor)	EC50 (alpha2B receptor)	Alpha 2B IA (alpha2B receptor)	EC50 (alpha2C receptor)	Alpha 2C IA (alpha2C receptor)	Alpha 2A EC50 (alpha2A receptor)	Alpha 2C EC50 (alpha2C receptor)
O=C(NCCF)NCc1cccc(Cl)c1F [Compound 1, 1-(3-chloro-2-fluoro-benzyl)-3-(2-fluoro-ethyl)-urea]	1750 nM	0.54	124 nM	1.0	1130 nM	0.71	–	–
Cc1ccccc1CNC(=O)NCCF [Compound 2, 1-(2-fluoro-ethyl)-3-(2-methyl-benzyl)-urea]	–	–	152 nM	1.13	1290 nM	0.78	not active	–
O=C(NCCF)NCc1ccccc1F [Compound 3, 1-(2-fluoro-benzyl)-3-(2-fluoro-ethyl)-urea]	–	–	148 nM	1.1	363 nM	0.63	not active	–
O=C(NCCF)NCc1cccc(F)c1 [Compound 4, 1-(3-fluoro-benzyl)-3-(2-fluoro-ethyl)-urea]	–	–	221 nM	1.14	368 nM	0.47	not active	–
O=C(NCCF)NCc1cccc(Br)c1 [Compound 7, 1-(3-bromo-benzyl)-3-(2-fluoro-ethyl)-urea]	> 2000 nM	0.46	355 nM	0.84	556 nM	0.81	–	–
O=C(NCCF)NCc1ccccc1C(F)(F)F [Compound 8, 1-(2-fluoro-ethyl)-3-(2-trifluoromethyl-benzyl)-urea]	–	–	569 nM	0.8	950 nM	0.93	not active	–
O=C(NCCF)NCc1cccc(I)c1 [Compound 9, 1-(2-fluoro-ethyl)-3-(3-iodo-benzyl)-urea]	1480 nM	0.48	171 nM	0.76	302 nM	0.62	–	–
O=C(NCCF)NCc1cccc(C(F)(F)F)c1Cl [Compound 11, 1-(2-chloro-3-trifluoromethyl-benzyl)-3-(2-fluoro-ethyl)-urea]	–	–	106 nM	0.9	1090 nM	0.66	not active	–
O=C(NCCF)NCc1ccccc1I [Compound 12, 1-(2-fluoro-ethyl)-3-(2-iodo-benzyl)-urea]	–	–	277 nM	0.89	489 nM	0.78	not active	–
O=C(NCCF)NCc1cccc(I)c1I [Compound 13, 1-(2-fluoro-ethyl)-3-(2,3-diiodo-benzyl)-urea]	1010 nM	0.59	96 nM	0.86	192 nM	0.72	–	–
COc1c(Cl)cccc1CNC(=O)NCCF [Compound 16, 1-(3-chloro-2-methoxy-benzyl)-3-(2-fluoro-ethyl)-urea]	1020 nM	0.66	93 nM	1.32	724 nM	0.72	–	–
COc1c(Br)cccc1CNC(=O)NCCF [Compound 19, 1-(3-bromo-2-methoxy-benzyl)-3-(2-fluoro-ethyl)-urea]	–	–	2530 nM	0.83	–	–	not active	not active
O=C(NCCF)Nc1ccc2c(c1)CCC2 [Compound 21, 1-(2-fluoro-ethyl)-3-indan-5-yl-urea]	–	–	115 nM	0.33	–	–	not active	not active

These reach a lower EC50 (alpha2B receptor). Values come first.

EC50 (alpha2A receptor)	Alpha 2A IA (alpha2A receptor)	EC50 (alpha2B receptor)	Alpha 2B IA (alpha2B receptor)	EC50 (alpha2C receptor)	Alpha 2C IA (alpha2C receptor)	Alpha 2A EC50 (alpha2A receptor)	Alpha 2C EC50 (alpha2C receptor)	Compound
980 nM	0.48	88 nM	1.26	876 nM	0.74	–	–	Cc1cccc(CNC(=O)NCCF)c1 [Compound 5, 1-(2-fluoro-ethyl)-3-(3-methyl-benzyl)-urea]
122 nM	0.36	85 nM	0.9	488 nM	1.1	–	–	O=C(NCCF)NCc1ccccc1Br [Compound 6, 1-(2-bromo-benzyl)-3-(2-fluoro-ethyl)-urea]
–	–	88 nM	0.91	446 nM	0.86	not active	–	O=C(NCCF)NCc1cccc(Cl)c1Cl [Compound 10, 1-(2,3-dichloro-benzyl)-3-(2-fluoro-ethyl)-urea]
366 nM	0.34	8.5 nM	0.85	101 nM	0.66	–	–	Cc1cccc(CNC(=O)NCCF)c1Cl [Compound 14, 1-(2-chloro-3-methyl-benzyl)-3-(2-fluoro-ethyl)-urea]
224 nM	0.46	25 nM	1.3	297 nM	0.88	–	–	O=C(NCCF)NCc1cccc(Br)c1Cl [Compound 15, 1-(3-bromo-2-chloro-benzyl)-3-(2-fluoro-ethyl)-urea]
678 nM	0.79	40 nM	1.25	685 nM	0.93	–	–	COc1c(C)cccc1CNC(=O)NCCF [Compound 17, 1-(2-fluoro-ethyl)-3-(2-methoxy-3-methyl-benzyl)-urea]
400 nM	0.36	40 nM	1.24	1380 nM	0.94	–	–	Cc1c(Cl)cccc1CNC(=O)NCCF [Compound 18, 1-(3-chloro-2-methyl-benzyl)-3-(2-fluoro-ethyl)-urea]
147 nM	0.51	27 nM	1.14	82 nM	0.83	–	–	O=C(NCCF)NCc1cccc2c1OCC2 [Compound 20, 1-(2,3-dihydro-benzofuran-7-ylmethyl)-3-(2-fluoro-ethyl)-urea]
